From patent publication US20250313530A1, “SMALL MOLECULE INHIBITORS OF INTERLEUKIN-4 AND USES THEREOF” (Trustees of Boston University, priority 2024, published 2025)
Read-outs that look alike come from different tables or passages of the source.

What was measured:
soluble IL-4 = target: T1, soluble IL-4 (Homo sapiens, UniProt P05112); experiment: Differential scanning fluorimetry (thermal shift), IL-4; type: binding
T1 sequence (P05112 25-153): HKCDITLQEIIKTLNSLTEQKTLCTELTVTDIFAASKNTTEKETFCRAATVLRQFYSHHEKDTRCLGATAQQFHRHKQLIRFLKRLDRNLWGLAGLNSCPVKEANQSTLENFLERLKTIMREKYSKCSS
Method: DSF was performed using BioRad CFX384.

[1] = system: IL-4 induced STAT-6 phosphorylation in Ramos B lymphocytes (type I IL-4 receptor); experiment: Ramos STAT-6 phosphorylation assay (western blot); type: cell-based
Method: Ramos cells were purchased from ATCC and maintained in RMPI-1640 with 10% heat-inactivated Fetal Bovine Serum. Cells used for assays were between passages 4 and 8. […] Undiluted cell lysates were run SDS-PAGE and transferred to Immunoblot PVDF membrane using Biorad equipment. Membranes were incubated with 1:1000 primary antibody overnight at 4° C. Membranes were then incubated with 1:50,000 dilution secondary for 1 hour at room temperature. Membranes were then exposed to Femto ECL for 5 minutes and imaged using a Bio-Rad Gel Doc. The brightness/contrast was adjusted in FIJI and the area under the curve of each lane was quantified. The phosphorylated STAT-6 to STAT-6 ratio was calculated and normalized to the amount of total STAT-6. The data was plotted and analyzed using GraphPad Prism 9.2.0.

IL-4 = target: T2, IL-4 (Homo sapiens, UniProt P05112); experiment: HEK-Blue IL-4/IL-13 reporter assay, IL-4 inhibition; type: cell-based; conditions: control: cells with 10 μM compound only, no IL-4
T2 construct: purchased Acros Biosystems IL4-H4218; host or cells: HEK-293
T2 sequence (P05112 25-153): T1 sequence (P05112 25-153)

Structure (SMILES): N#Cc1c(-c2ccc(O)c(O)c2)cc(-c2ccccc2)[nH]c1=N [Compound 15, 4-(3,4-dihydroxyphenyl)-2-imino-6-phenyl-1,2-dihydropyridine-3-carbonitrile]
- ΔTm at 2 µM (soluble IL-4; IL-4 shift minus IL-2 shift, 2 μM, read-out: thermal shift for IL-4 stronger than for IL-2 by): > 1 °C
- ΔTm at 2 µM (soluble IL-4; soluble IL-4, 2 μM compound, 0.1% DMSO, read-out: Tm shift): 1.75 °C
- inhibition at 0.5 µM ([1]; Homo sapiens, Ramos, read-out: percent inhibition of STAT-6 phosphorylation): 61.9%
- inhibition of phosphorylation of STAT-6 ([1]; Ramos B lymphocytes, 50 nM): minimum inhibition
- Abs650 (IL-4): 0.06345 ± 0.001036
